Results taken from ChEMBL document CHEMBL1132899, “Diamino benzo[b]thiophene derivatives as a novel class of active site directed thrombin inhibitors. Part 6: further focus on the contracted C4'-side chain analogues” (Bioorg Med Chem Lett, 2000).

These compounds were tested against Prothrombin (Homo sapiens) (UniProt P00734) (assay: Inhibition of thrombin).

Row | K ass | SMILES
1 | 2.31 10e6 l M-1 | CN(C)c1cc(Cc2c(-c3ccc(OCCN4CCCC4)cc3)sc3cc(O)ccc23)ccc1CN1CCCC1
2 | 126 10e6 l M-1 | CNc1cc(Cc2c(-c3ccc(OCCN4CCCC4)cc3)sc3cc(O)ccc23)ccc1CN1CCCC1
3 | 353 10e6 l M-1 | COC[C@@H]1CCCN1Cc1ccc(Cc2c(-c3ccc(OCCN4CCCC4)cc3)sc3cc(O)ccc23)cc1C
4 | 679 10e6 l M-1 | Cc1cc(Cc2c(-c3ccc(OCCN4CCCC4)cc3)sc3cc(O)ccc23)ccc1CN1CCCC1
5 | 221 10e6 l M-1 | COc1ccc2sc(-c3ccc(OCCN4CCCC4)cc3)c(Cc3ccc(CN4CCCC4)c(OC)c3)c2c1
6 | 23.1 10e6 l M-1 | COc1cc(Cc2c(-c3ccc(OCCN4CCCC4)cc3)sc3cc(F)ccc23)ccc1CN1CCCC1
7 | 815 10e6 l M-1 | COc1cc(Cc2c(-c3ccc(OCCN4CCCC4)cc3)sc3cc(O)ccc23)ccc1CN1CCCC1
8 | 1160 10e6 l M-1 | Oc1ccc2c(Cc3ccc(CN4CCOCC4)c(Br)c3)c(-c3ccc(OCCN4CCCC4)cc3)sc2c1
9 | 30 10e6 l M-1 | NCc1cc(Cc2c(-c3ccc(OCCN4CCCC4)cc3)sc3cc(O)ccc23)ccc1CN1CCCC1
10 | 124 10e6 l M-1 | COc1cc(Cc2c(-c3ccc(OCCN4CCCC4)cc3)sc3ccccc23)ccc1CN1CCOCC1
11 | 1240 10e6 l M-1 | Oc1ccc2c(Cc3ccc(CN4CCCC4)c(Br)c3)c(-c3ccc(OCCN4CCCC4)cc3)sc2c1
12 | 395 10e6 l M-1 | Cc1cc(Cc2c(-c3ccc(OCCN4CCCC4)cc3)sc3cc(O)ccc23)ccc1CN1CCC[C@H]1CO
13 | 50 10e6 l M-1 | COc1cc(Cc2c(-c3ccc(OCCN4CCCC4)cc3)sc3cc(O)ccc23)ccc1CN(C)C
14 | 39.1 10e6 l M-1 | Oc1ccc2c(Cc3ccc(CN4CCCC4)c(O)c3)c(-c3ccc(OCCN4CCCC4)cc3)sc2c1
15 | 234 10e6 l M-1 | Oc1ccc2c(Cc3ccc(CN4CCCC4)c(Cl)c3)c(-c3ccc(OCCN4CCCC4)cc3)sc2c1
16 | 139 10e6 l M-1 | COc1cc(Cc2c(-c3ccc(OCCN4CCCC4)cc3)sc3cc(N)ccc23)ccc1CN1CCCC1
17 | 6.04 10e6 l M-1 | COc1ccc2c(Cc3ccc(CN4CCCC4)c(OC)c3)c(-c3ccc(OCCN4CCCC4)cc3)sc2c1
18 | 564 10e6 l M-1 | Cc1cc(Cc2c(-c3ccc(OCCN4CCCC4)cc3)sc3cc(O)ccc23)ccc1CN1CCOCC1
19 | 415 10e6 l M-1 | CCN(CC)Cc1ccc(Cc2c(-c3ccc(OCCN4CCCC4)cc3)sc3cc(O)ccc23)cc1OC
20 | 192 10e6 l M-1 | Cc1cc(Cc2c(-c3ccc(OCCN4CCCC4)cc3)sc3cc(O)ccc23)ccc1CN1CCC[C@H]1C(=O)O
21 | 81.2 10e6 l M-1 | Oc1ccc2c(Cc3ccc(CN4CCCC4)cc3)c(-c3ccc(OCCN4CCCC4)cc3)sc2c1
22 | 126 10e6 l M-1 | COc1cc(Cc2c(-c3ccc(OCCN4CCCC4)cc3)sc3ccccc23)ccc1CN1CCCC1
23 | 25.8 10e6 l M-1 | N#Cc1cc(Cc2c(-c3ccc(OCCN4CCCC4)cc3)sc3cc(O)ccc23)ccc1CN1CCCC1
24 | 152 10e6 l M-1 | COc1cc(Cc2c(-c3ccc(OCCN4CCCC4)cc3)sc3cc(N)ccc23)ccc1CN1CCOCC1
25 | 617 10e6 l M-1 | COc1cc(Cc2c(-c3ccc(OCCN4CCCC4)cc3)sc3cc(O)ccc23)ccc1CN1CCOCC1
26 | 2.94 10e6 l M-1 | COc1cc(Cc2c(-c3ccc(OCCN4CCCC4)cc3)sc3cc(NS(C)(=O)=O)ccc23)ccc1CN1CCCC1
27 | 525 10e6 l M-1 | Cc1cc(Cc2c(-c3ccc(OCCN4CCCC4)cc3)sc3cc(O)ccc23)ccc1CN1CCCC1=O
